Columns and labels:
Assay in all cases: KINOMEscan
Format in all cases: binding
Conditions in all cases: read-out: percent control
LATS2 = LATS2 (Homo sapiens (Human), UniProt Q9NRM7)
Description: (§1) Example 2. In Vitro Kinase Selectivity Profiling of the Compounds of the Present Disclosure

ACVR1 = ACVR1 (Homo sapiens (Human), UniProt Q04771)
Description: as §1

AKT2 = AKT2 (Homo sapiens (Human), UniProt P31751)
Description: as §1

PIK3CA(C420R) = PIK3CA(C420R) (Homo sapiens (Human), UniProt P42336, C420R)
Description: as §1

[1] = molecular target: ABL1(H396P)-phosphorylated (Homo sapiens (Human), UniProt P00519, H396P)
Description: as §1

[2] = molecular target: JAK1(JH1domain-catalytic) (Homo sapiens (Human), UniProt P23458)
Description: as §1

[3] = molecular target: RSK1(Kin.Dom.2-C-terminal) (Homo sapiens (Human), UniProt Q15418)
Description: as §1

DCAMKL2 = DCAMKL2 (Homo sapiens (Human), UniProt Q8N568)
Description: as §1

TNK2 = TNK2 (Homo sapiens (Human), UniProt Q07912)
Description: as §1

EPHA3 = EPHA3 (Homo sapiens (Human), UniProt P29320)
Description: as §1

ACVRL1 = ACVRL1 (Homo sapiens (Human), UniProt P37023)
Description: as §1

SNRK = SNRK (Homo sapiens (Human), UniProt Q9NRH2)
Description: as §1

TRKA = TRKA (Homo sapiens (Human), UniProt P04629)
Description: as §1

CHEK1 = CHEK1 (Homo sapiens (Human), UniProt O14757)
Description: as §1

BMPR2 = BMPR2 (Homo sapiens (Human), UniProt Q13873)
Description: as §1

SRPK2 = SRPK2 (Homo sapiens (Human), UniProt P78362)
SRPK2, sequence (P78362 whole entry): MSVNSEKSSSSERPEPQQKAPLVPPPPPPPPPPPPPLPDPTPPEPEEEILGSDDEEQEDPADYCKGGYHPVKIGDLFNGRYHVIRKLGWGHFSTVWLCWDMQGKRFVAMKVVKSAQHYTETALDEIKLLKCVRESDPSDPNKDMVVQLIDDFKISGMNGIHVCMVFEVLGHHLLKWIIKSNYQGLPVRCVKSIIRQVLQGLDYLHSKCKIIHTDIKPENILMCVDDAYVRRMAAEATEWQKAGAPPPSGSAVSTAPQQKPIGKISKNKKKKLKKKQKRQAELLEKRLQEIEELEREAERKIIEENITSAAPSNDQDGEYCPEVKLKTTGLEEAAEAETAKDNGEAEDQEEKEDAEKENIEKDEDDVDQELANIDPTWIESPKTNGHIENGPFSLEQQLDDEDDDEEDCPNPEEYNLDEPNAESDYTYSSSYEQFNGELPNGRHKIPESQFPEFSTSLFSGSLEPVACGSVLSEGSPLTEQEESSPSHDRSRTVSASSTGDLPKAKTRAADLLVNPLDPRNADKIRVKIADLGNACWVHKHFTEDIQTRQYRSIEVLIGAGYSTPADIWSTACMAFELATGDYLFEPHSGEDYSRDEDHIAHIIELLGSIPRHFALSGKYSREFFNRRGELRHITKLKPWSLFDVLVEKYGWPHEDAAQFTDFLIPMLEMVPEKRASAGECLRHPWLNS
Description: as §1

MEK4 = MEK4 (Homo sapiens (Human), UniProt P45985)
MEK4, sequence (P45985 whole entry): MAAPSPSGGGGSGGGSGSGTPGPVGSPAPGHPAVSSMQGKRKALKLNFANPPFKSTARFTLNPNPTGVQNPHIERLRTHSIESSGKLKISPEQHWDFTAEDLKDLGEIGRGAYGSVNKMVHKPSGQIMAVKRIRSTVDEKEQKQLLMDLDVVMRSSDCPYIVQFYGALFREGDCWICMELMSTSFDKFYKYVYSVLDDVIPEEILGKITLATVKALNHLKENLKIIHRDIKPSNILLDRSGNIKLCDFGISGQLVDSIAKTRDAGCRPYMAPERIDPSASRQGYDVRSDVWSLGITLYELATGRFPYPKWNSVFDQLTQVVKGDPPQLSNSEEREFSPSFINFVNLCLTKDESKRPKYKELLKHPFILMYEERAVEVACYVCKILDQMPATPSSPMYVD
Description: as §1

KIT(D816V) = KIT(D816V) (Homo sapiens (Human), UniProt P10721, D816V)
KIT(D816V), sequence (P10721 26-976 D816V): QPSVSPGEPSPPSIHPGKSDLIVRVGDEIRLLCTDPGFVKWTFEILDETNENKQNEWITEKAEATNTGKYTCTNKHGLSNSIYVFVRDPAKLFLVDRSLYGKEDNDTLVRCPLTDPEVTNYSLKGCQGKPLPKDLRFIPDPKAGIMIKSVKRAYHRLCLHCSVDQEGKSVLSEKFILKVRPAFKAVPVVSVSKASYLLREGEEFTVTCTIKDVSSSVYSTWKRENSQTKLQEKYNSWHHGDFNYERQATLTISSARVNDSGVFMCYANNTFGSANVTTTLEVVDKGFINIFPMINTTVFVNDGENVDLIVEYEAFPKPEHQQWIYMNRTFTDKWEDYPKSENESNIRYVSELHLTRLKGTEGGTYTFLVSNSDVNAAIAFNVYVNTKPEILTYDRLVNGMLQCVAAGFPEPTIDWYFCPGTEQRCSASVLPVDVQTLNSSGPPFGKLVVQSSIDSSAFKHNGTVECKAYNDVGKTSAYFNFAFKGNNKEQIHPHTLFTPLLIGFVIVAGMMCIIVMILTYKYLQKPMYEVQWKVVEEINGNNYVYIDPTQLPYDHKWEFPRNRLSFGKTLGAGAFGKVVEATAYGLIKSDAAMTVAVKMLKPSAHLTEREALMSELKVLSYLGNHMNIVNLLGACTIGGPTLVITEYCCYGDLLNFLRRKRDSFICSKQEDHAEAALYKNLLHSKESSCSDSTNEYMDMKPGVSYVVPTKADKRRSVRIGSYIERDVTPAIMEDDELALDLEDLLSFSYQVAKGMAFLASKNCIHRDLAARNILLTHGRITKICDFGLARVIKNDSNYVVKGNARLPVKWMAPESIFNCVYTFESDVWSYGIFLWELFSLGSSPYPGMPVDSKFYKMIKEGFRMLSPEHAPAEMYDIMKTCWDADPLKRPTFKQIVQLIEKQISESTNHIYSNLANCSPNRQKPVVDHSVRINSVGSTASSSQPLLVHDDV
Description: as §1

MELK = MELK (Homo sapiens (Human), UniProt Q14680)
Description: as §1

TEC = TEC (Homo sapiens (Human), UniProt P42680)
Description: as §1

MAK = MAK (Homo sapiens (Human), UniProt P20794)
Description: as §1

RIOK3 = RIOK3 (Homo sapiens (Human), UniProt O14730)
Description: as §1

EGFR(G719S) = EGFR(G719S) (Homo sapiens (Human), UniProt P00533, G719S)
Description: as §1

TTK = TTK (Homo sapiens (Human), UniProt P33981)
Description: as §1

AXL = AXL (Homo sapiens (Human), UniProt P30530)
Description: as §1

TLK1 = TLK1 (Homo sapiens (Human), UniProt Q9UKI8)
TLK1, sequence (Q9UKI8 whole entry): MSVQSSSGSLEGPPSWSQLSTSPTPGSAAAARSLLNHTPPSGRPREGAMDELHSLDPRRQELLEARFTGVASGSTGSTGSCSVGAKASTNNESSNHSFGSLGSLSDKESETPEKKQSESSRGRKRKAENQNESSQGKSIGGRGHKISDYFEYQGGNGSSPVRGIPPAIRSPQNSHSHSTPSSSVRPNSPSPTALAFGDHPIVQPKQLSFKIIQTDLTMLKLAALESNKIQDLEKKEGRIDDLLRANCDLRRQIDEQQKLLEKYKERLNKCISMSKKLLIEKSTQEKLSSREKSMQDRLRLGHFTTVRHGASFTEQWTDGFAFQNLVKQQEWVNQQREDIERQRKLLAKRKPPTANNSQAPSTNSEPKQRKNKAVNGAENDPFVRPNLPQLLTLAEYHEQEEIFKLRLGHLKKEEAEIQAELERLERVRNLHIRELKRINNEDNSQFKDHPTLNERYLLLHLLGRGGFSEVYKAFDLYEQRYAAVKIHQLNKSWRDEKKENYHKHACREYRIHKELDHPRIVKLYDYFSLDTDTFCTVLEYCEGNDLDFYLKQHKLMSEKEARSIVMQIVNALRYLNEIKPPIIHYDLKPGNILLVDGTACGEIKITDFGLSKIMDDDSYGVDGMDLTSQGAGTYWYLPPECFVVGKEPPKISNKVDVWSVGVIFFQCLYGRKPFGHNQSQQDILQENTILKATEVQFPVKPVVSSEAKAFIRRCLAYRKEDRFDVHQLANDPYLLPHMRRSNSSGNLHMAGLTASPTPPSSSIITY
Description: as §1

LKB1 = LKB1 (Homo sapiens (Human), UniProt Q15831)
Description: as §1

STK33 = STK33 (Homo sapiens (Human), UniProt Q9BYT3)
Description: as §1

GSK3B = GSK3B (Homo sapiens (Human), UniProt P49841)
Description: as §1

EGFR(L858R) = EGFR(L858R) (Homo sapiens (Human), UniProt P00533, L858R)
EGFR(L858R), sequence (P00533 25-1210 L858R): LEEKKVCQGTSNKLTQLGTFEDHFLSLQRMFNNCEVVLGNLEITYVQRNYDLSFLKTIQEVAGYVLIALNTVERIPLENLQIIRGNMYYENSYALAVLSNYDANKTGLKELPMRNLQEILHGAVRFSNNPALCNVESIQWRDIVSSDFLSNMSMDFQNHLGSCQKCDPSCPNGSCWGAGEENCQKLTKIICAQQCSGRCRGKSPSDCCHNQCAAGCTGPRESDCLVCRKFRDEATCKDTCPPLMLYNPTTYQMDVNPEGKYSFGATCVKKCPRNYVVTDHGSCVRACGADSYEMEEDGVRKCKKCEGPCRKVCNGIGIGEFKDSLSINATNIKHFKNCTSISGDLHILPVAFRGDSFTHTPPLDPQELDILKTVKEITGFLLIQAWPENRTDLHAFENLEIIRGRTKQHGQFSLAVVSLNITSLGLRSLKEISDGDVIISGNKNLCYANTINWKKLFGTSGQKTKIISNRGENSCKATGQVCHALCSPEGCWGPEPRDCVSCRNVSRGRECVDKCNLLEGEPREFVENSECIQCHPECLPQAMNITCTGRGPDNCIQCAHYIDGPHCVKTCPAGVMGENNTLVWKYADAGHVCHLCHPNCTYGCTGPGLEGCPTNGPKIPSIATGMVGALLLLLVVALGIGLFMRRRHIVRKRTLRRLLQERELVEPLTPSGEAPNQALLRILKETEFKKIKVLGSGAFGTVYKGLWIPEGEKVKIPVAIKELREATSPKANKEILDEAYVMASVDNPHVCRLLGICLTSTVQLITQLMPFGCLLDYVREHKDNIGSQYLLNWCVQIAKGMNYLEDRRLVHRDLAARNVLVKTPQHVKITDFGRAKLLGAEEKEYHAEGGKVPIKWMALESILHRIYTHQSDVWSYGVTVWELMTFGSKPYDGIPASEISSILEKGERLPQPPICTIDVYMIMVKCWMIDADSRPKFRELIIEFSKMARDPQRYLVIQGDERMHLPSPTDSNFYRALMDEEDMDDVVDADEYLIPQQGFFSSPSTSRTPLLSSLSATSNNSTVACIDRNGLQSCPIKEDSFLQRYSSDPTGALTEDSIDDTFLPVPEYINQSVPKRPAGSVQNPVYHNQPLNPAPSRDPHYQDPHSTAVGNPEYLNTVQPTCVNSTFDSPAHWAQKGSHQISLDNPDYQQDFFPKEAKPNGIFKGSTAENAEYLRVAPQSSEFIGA
Description: as §1

[4] = molecular target: JAK2(JH1domain-catalytic) (Homo sapiens (Human), UniProt O60674)
Description: as §1

[5] = molecular target: RSK2(Kin.Dom.1-N-terminal) (Homo sapiens (Human), UniProt P51812)
Description: as §1

AAK1 = AAK1 (Homo sapiens (Human), UniProt Q2M2I8)
Description: as §1

TGFBR2 = TGFBR2 (Homo sapiens (Human), UniProt P37173)
Description: as §1

SRC = SRC (Homo sapiens (Human), UniProt P12931)
Description: as §1

CTK = CTK (Homo sapiens (Human), UniProt P42679)
Description: as §1

SGK = SGK (Homo sapiens (Human), UniProt O00141)
SGK, sequence (O00141 whole entry): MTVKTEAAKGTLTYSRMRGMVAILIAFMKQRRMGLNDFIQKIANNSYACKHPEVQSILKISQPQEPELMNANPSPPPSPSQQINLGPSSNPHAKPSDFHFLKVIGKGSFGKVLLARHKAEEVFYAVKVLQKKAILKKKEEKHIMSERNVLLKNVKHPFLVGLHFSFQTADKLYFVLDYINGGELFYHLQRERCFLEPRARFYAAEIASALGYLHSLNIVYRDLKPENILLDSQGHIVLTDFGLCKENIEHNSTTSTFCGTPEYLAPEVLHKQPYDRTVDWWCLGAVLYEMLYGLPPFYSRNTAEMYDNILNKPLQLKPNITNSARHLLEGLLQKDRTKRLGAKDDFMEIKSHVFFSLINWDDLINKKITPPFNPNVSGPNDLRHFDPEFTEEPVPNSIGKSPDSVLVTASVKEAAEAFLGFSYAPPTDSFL
Description: as §1

VRK2 = VRK2 (Homo sapiens (Human), UniProt Q86Y07)
Description: as §1

CAMK2D = CAMK2D (Homo sapiens (Human), UniProt Q13557)
CAMK2D, sequence (Q13557 whole entry): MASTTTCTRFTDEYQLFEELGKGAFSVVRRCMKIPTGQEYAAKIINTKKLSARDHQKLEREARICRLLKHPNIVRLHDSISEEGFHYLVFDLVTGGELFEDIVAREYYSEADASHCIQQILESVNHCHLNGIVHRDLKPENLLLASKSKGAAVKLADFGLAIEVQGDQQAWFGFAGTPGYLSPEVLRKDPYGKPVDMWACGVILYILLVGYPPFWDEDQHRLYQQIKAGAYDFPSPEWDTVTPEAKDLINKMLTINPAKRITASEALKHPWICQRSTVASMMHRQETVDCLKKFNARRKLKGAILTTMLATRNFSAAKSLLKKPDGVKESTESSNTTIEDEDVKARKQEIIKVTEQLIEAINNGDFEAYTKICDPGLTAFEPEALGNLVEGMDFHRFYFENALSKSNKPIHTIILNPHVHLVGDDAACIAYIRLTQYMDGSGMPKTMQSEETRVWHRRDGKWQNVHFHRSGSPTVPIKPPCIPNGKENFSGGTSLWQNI
Description: as §1

FLT3(R834Q) = FLT3(R834Q) (Homo sapiens (Human), UniProt P36888, R834Q)
Description: as §1

| Structure (SMILES) | remaining binding at 1 µM (LATS2) | remaining binding at 1 µM (ACVR1) | remaining binding at 1 µM (AKT2) | remaining binding at 1 µM (PIK3CA(C420R)) | remaining binding at 1 µM [1] | remaining binding at 1 µM [2] | remaining binding at 1 µM [3] | remaining binding at 1 µM (DCAMKL2) | remaining binding at 1 µM (TNK2) | remaining binding at 1 µM (EPHA3) | remaining binding at 1 µM (ACVRL1) | remaining binding at 1 µM (SNRK) | remaining binding at 1 µM (TRKA) | remaining binding at 1 µM (CHEK1) | remaining binding at 1 µM (BMPR2) | remaining binding at 1 µM (SRPK2) | remaining binding at 1 µM (MEK4) | remaining binding at 1 µM (KIT(D816V)) | remaining binding at 1 µM (MELK) | remaining binding at 1 µM (TEC) | further results |
| --- | --- | --- | --- | --- | --- | --- | --- | --- | --- | --- | --- | --- | --- | --- | --- | --- | --- | --- | --- | --- | --- |
| CCN1CCN(Cc2ccc(Nc3nc4ccc(Oc5ccnc(NC(C)=O)c5)cc4n3C)cc2C(F)(F)F)CC1 [Compound I-2] | 100% | 99% | 100% | 100% | 45% | 30% | 93% | 89% | 94% | 52% | 85% | 100% | 31% | 100% | 100% | 92% | 97% | 56% | 83% | 78% | remaining binding at 1 µM (MAK): 78%; remaining binding at 1 µM (RIOK3): 22%; remaining binding at 1 µM (EGFR(G719S)): 96%; remaining binding at 1 µM (TTK): 75%; remaining binding at 1 µM (AXL): 86%; remaining binding at 1 µM (TLK1): 87%; remaining binding at 1 µM (LKB1): 40%; remaining binding at 1 µM (STK33): 76%; remaining binding at 1 µM (GSK3B): 76%; remaining binding at 1 µM (EGFR(L858R)): 83%; remaining binding at 1 µM [4]: 16%; remaining binding at 1 µM [5]: 95%; remaining binding at 1 µM (AAK1): 100%; remaining binding at 1 µM (TGFBR2): 90%; remaining binding at 1 µM (SRC): 61%; remaining binding at 1 µM (CTK): 83%; remaining binding at 1 µM (SGK): 85%; remaining binding at 1 µM (VRK2): 54%; remaining binding at 1 µM (CAMK2D): 100%; remaining binding at 1 µM (FLT3(R834Q)): 100% |
| CCN1CCN(Cc2ccc(Nc3nc4ccc(Oc5ccnc(NC(C)=O)c5)c(C)c4n3C)cc2C(F)(F)F)CC1 [Compound I-6, N-(4-(2-(4-((4-ethylpiperazin-1-yl)methyl)-3-(trifluoromethyl)phenylamino)-1,7-dimethyl-1H-benzo[d]imidazol-6-yloxy)pyridin-2-yl)acetamide] | 100% | 100% | 100% | 99% | 30% | 40% | 100% | 100% | 100% | 68% | 93% | 81% | 3.5% | 100% | 100% | 75% | 91% | 50% | 93% | 100% | remaining binding at 1 µM (MAK): 86%; remaining binding at 1 µM (RIOK3): 100%; remaining binding at 1 µM (EGFR(G719S)): 100%; remaining binding at 1 µM (TTK): 96%; remaining binding at 1 µM (AXL): 61%; remaining binding at 1 µM (TLK1): 93%; remaining binding at 1 µM (LKB1): 91%; remaining binding at 1 µM (STK33): 66%; remaining binding at 1 µM (GSK3B): 100%; remaining binding at 1 µM (EGFR(L858R)): 97%; remaining binding at 1 µM [4]: 29%; remaining binding at 1 µM [5]: 83%; remaining binding at 1 µM (AAK1): 96%; remaining binding at 1 µM (TGFBR2): 81%; remaining binding at 1 µM (SRC): 32%; remaining binding at 1 µM (CTK): 90%; remaining binding at 1 µM (SGK): 96%; remaining binding at 1 µM (VRK2): 100%; remaining binding at 1 µM (CAMK2D): 85%; remaining binding at 1 µM (FLT3(R834Q)): 57% |
